# From patent US20250186453A1, “COMBINATION THERAPIES COMPRISING A SOS1 INHIBITOR AND A MEK INHIBITOR” (Mirati Therapeutics, Inc., priority 2022, published 2025)
# Assays:
# [1] = system: NCI-H1435 cells harboring NF1 K615N mutation; assay: NCI-H1435 tumor xenograft model, SOS1 inhibitor - MEK inhibitor combination; format: in vivo, nude/nude mice; settings: for tumor growth inhibition: NCI-H1435 tumors, day 27, single agent, MRTX0902 50 mg/kg twice daily, VS-6766 0.3 mg/kg twice daily Monday, Wednesday, Friday; for Average Tumor Volumes of NCI-H1435 Tumor Bearing Mice: p.o., MRTX0902 50 mg/kg BID, VS-6766 0.3 mg/kg BID MWF (Q2D), mean of 5 mice
# Method: (§1) Immunocompromised nude/nude mice are inoculated in the right hind flank with NCI-H1435 cells harboring NF1 K615N mutation. When tumor volumes reach approximately 150 mm3 in size, the mice are divided into four groups of 5 mice each. The first group is administered vehicle only. […] The fourth group is administered a single agent dose of the SOS1 inhibitor in combination with a single agent dose of the MEK inhibitor. The treatment period was 27 days. Tumor volumes are measured using a caliper every two—three days and tumor volumes are calculated by the formula: 0.5×(Length×Width)2.
# 20 nude/nude mice were inoculated in the right hind limb with 5×10^6 NCI-H1435 cells. When tumor volume reached ˜150 mm3 (Study Day 0), 5 mice in each of the four groups were administered p.o. daily for 27 days: vehicle only (0.5% MC (4000 cps)/0.2% Tween80 in water), 50 mg/kg BID of the SOS1 inhibitor (R)-2-methyl-3-(1-((4-methyl-7-morpholinopyrido[3,4-d]pyridazin-1-yl)amino)ethyl)benzonitrile (MRTX0902) (0.5% MC (4000 cps)/0.2% Tween80 in water), 0.3 mg/kg BID Q2D of MEK inhibitor VS-6766 (5% DMSO, 10% HPCD in water), or 50 mg/kg BID MRTX0902 and 0.3 mg/kg BID Q2D VS-6766. Tumor volumes, measured at pre-specified days, for the five mice per group were averaged and are reported for NCI-H1435 cells in Table 2 and FIG. 2.
# [2] = system: LN229 cells harboring the A72S mutation (PTPN11 A72S); assay: LN229 tumor xenograft model, SOS1 inhibitor - MEK inhibitor combination; format: in vivo, nude/nude mice; settings: for tumor growth inhibition: LN229 tumors, day 28, single agent, MRTX0902 50 mg/kg twice daily, VS-6766 0.3 mg/kg twice daily Monday, Wednesday, Friday; for Average Tumor Volumes of LN229 Tumor Bearing Mice: p.o., MRTX0902 50 mg/kg BID, VS-6766 0.3 mg/kg BID MWF (Q2D), mean of 5 mice
# Method: as §1, with “with LN229” for “with NCI-H1435”, “harboring the A72S” for “harboring NF1 K615N”, “administered the” for “administered a”, “with the” for “with a”, “was 28” for “was 27”
# [0153]20 nude/nude mice were inoculated in the right hind limb with 5×10^6 LN229 cells. When tumor volume reached ˜150 mm3 (Study Day 0), 5 mice in each of the four groups were administered p.o. daily for 28 days: vehicle only (0.5% MC (4000 cps)/0.2% Tween80 in water), 50 mg/kg BID of the SOS1 inhibitor (R)-2-methyl-3-(1-((4-methyl-7-morpholinopyrido[3,4-d]pyridazin-1-yl)amino)ethyl)benzonitrile (MRTX0902) (0.5% MC (4000 cps)/0.2% Tween80 in water), 0.3 mg/kg BID Q2D of MEK inhibitor VS-6766 (5% DMSO, 10% HPCD in water), or 50 mg/kg BID MRTX0902 and 0.3 mg/kg BID Q2D. Tumor volumes, measured at pre-specified days, for the five mice per group were averaged and are reported for LN229 cells in Table 1 and FIG. 1.
Structure (SMILES),tumor growth inhibition [1],Average Tumor Volumes of NCI-H1435 Tumor Bearing Mice ([1]; Study Day 0 (start of dosing)),Average Tumor Volumes of NCI-H1435 Tumor Bearing Mice ([1]; Study Day 3),Average Tumor Volumes of NCI-H1435 Tumor Bearing Mice ([1]; Study Day 6),Average Tumor Volumes of NCI-H1435 Tumor Bearing Mice ([1]; Study Day 10),Average Tumor Volumes of NCI-H1435 Tumor Bearing Mice ([1]; Study Day 13),Average Tumor Volumes of NCI-H1435 Tumor Bearing Mice ([1]; Study Day 17),Average Tumor Volumes of NCI-H1435 Tumor Bearing Mice ([1]; Study Day 20),Average Tumor Volumes of NCI-H1435 Tumor Bearing Mice ([1]; Study Day 24),Average Tumor Volumes of NCI-H1435 Tumor Bearing Mice ([1]; Study Day 27),tumor growth inhibition [2],Average Tumor Volumes of LN229 Tumor Bearing Mice ([2]; Study Day 0 (start of dosing)),Average Tumor Volumes of LN229 Tumor Bearing Mice ([2]; Study Day 4),Average Tumor Volumes of LN229 Tumor Bearing Mice ([2]; Study Day 7),Average Tumor Volumes of LN229 Tumor Bearing Mice ([2]; Study Day 12),Average Tumor Volumes of LN229 Tumor Bearing Mice ([2]; Study Day 15),Average Tumor Volumes of LN229 Tumor Bearing Mice ([2]; Study Day 18),Average Tumor Volumes of LN229 Tumor Bearing Mice ([2]; Study Day 25),Average Tumor Volumes of LN229 Tumor Bearing Mice ([2]; Study Day 28)
"Cc1c(C#N)cccc1[C@@H](C)Nc1nnc(C)c2cnc(N3CCOCC3)cc12 [MRTX0902, (R)-2-methyl-3-(1-((4-methyl-7-morpholinopyrido[3,4-d]pyridazin-1-yl)amino)ethyl)benzonitrile]",49.8%,164 mm^3,241 mm^3,292 mm^3,333 mm^3,417 mm^3,437 mm^3,474 mm^3,583 mm^3,608 mm^3,37.6%,151 mm^3,174 mm^3,199 mm^3,248 mm^3,310 mm^3,374 mm^3,462 mm^3,525 mm^3
"CNS(=O)(=O)Nc1nccc(Cc2c(C)c3ccc(Oc4ncccn4)cc3oc2=O)c1F [VS-6766, 3-[[3-fluoro-2-(methylsulfamoylamino)pyridin-4-yl]methyl]-4-methyl-7-pyrimidin-2-yloxychromen-2-one]",76.4%,166 mm^3,254 mm^3,296 mm^3,307 mm^3,281 mm^3,286 mm^3,322 mm^3,349 mm^3,371 mm^3,92.5%,151 mm^3,143 mm^3,137 mm^3,120 mm^3,140 mm^3,186 mm^3,225 mm^3,196 mm^3
